Experimental data taken from the supplement of paper PMC6045584.
± gives the standard deviation of the averaged measurements.

What was measured:
AZD4547 = compound: COc1cc(CCc2cc(NC(=O)c3ccc(N4CC(C)NC(C)C4)cc3)n[nH]2)cc(OC)c1 [AZD4547]; test: surviving fraction relative to DMSO-only wells; higher = less growth inhibition; settings: exposure time: 5 days
Summary of the method: (§1)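 Each tumour cell line was screened three times, and only lines with replicate Pearson r >0.7 and median Z' >0.3 were kept. Cells in log phase were seeded at 250–500 per well in 384-well plates, left 24 hours, then exposed continuously for five days to inhibitors at 0.5, 1, 5, 10, 50, 100, 500 and 1000 nM. Viability was read as CellTiter-Glo luminescence, with surviving fraction normalised to the median of DMSO-only wells.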

EVEROLIMUS = compound: CO[C@H]1C[C@@H]2CC[C@@H](C)[C@@](O)(O2)C(=O)C(=O)N2CCCC[C@H]2C(=O)O[C@H]([C@H](C)C[C@@H]2CC[C@@H](OCCO)[C@H](OC)C2)CC(=O)[C@H](C)/C=C(\C)[C@@H](O)[C@@H](OC)C(=O)[C@H](C)C[C@H](C)/C=C/C=C/C=C/1C [EVEROLIMUS]; test: as above; settings: exposure time: 5 days
Summary of the method: as §1

| Test System | surviving fraction (AZD4547; 0.5 nM) | surviving fraction (AZD4547; 1 nM) | surviving fraction (AZD4547; 5 nM) | surviving fraction (AZD4547; 10 nM) | surviving fraction (AZD4547; 50 nM) | surviving fraction (AZD4547; 100 nM) | surviving fraction (AZD4547; 500 nM) | surviving fraction (AZD4547; 1000 nM) | surviving fraction (EVEROLIMUS; 0.5 nM) | surviving fraction (EVEROLIMUS; 1 nM) | surviving fraction (EVEROLIMUS; 5 nM) | surviving fraction (EVEROLIMUS; 10 nM) | surviving fraction (EVEROLIMUS; 50 nM) | surviving fraction (EVEROLIMUS; 100 nM) | surviving fraction (EVEROLIMUS; 500 nM) | surviving fraction (EVEROLIMUS; 1000 nM) |
| --- | --- | --- | --- | --- | --- | --- | --- | --- | --- | --- | --- | --- | --- | --- | --- | --- |
| 22RV1 PROSTATE | 1 ± 0.06 | 1.01 ± 0.059 | 1.02 ± 0.044 | 1.07 ± 0.056 | 0.998 ± 0.048 | 1.03 ± 0.053 | 1.1 ± 0.084 | 1.08 ± 0.082 | 0.788 ± 0.065 | 0.588 ± 0.14 | 0.452 ± 0.043 | 0.375 ± 0.031 | 0.515 ± 0.24 | 0.374 ± 0.032 | 0.365 ± 0.061 | 0.375 ± 0.028 |
| 93VU HEADNECK | 1.01 ± 0.063 | 1.08 ± 0.058 | 1.08 ± 0.09 | 1.11 ± 0.05 | 1.11 ± 0.042 | 1.16 ± 0.089 | 1.1 ± 0.077 | 0.975 ± 0.086 | 0.953 ± 0.098 | 0.905 ± 0.076 | 0.865 ± 0.024 | 0.841 ± 0.065 | 0.85 ± 0.051 | 0.767 ± 0.11 | 0.706 ± 0.027 | 0.649 ± 0.049 |
| 143B BONE | 0.948 ± 0.096 | 1.011 ± 0.0042 | 1.04 ± 0.014 | 1.02 ± 0.067 | 0.921 ± 0.13 | 1.01 ± 0.06 | 0.994 ± 0.04 | 0.974 ± 0.1 | 0.954 ± 0.032 | 0.948 ± 0.022 | 0.846 ± 0.03 | 0.824 ± 0.018 | 0.8355 ± 0.00071 | 0.825 ± 0.029 | 0.793 ± 0.057 | 0.827 ± 0.096 |
| A549 LUNG | 0.984 ± 0.02 | 1.03 ± 0.064 | 1.01 ± 0.039 | 1.02 ± 0.069 | 0.9867 ± 0.0075 | 1.03 ± 0.066 | 0.983 ± 0.026 | 1.031 ± 0.007 | 0.962 ± 0.022 | 0.927 ± 0.018 | 0.8767 ± 0.0076 | 0.842 ± 0.017 | 0.855 ± 0.041 | 0.826 ± 0.048 | 0.777 ± 0.0096 | 0.759 ± 0.058 |
| ASKA SYNOVIAL | 1.15 ± 0.06 | 1.11 ± 0.015 | 1.2 ± 0.058 | 1.12 ± 0.021 | 1.16 ± 0.036 | 1.08 ± 0.084 | 0.877 ± 0.059 | 0.658 ± 0.041 | 1 ± 0.077 | 0.93 ± 0.1 | 0.787 ± 0.085 | 0.62 ± 0.049 | 0.612 ± 0.022 | 0.576 ± 0.051 | 0.531 ± 0.036 | 0.577 ± 0.04 |
| BT20 BREAST | 1.12 ± 0.13 | 1.08 ± 0.071 | 1.11 ± 0.059 | 1.13 ± 0.061 | 1.05 ± 0.072 | 1.04 ± 0.072 | 1.15 ± 0.043 | 0.968 ± 0.15 | 0.595 ± 0.042 | 0.46 ± 0.037 | 0.394 ± 0.041 | 0.378 ± 0.042 | 0.353 ± 0.015 | 0.369 ± 0.02 | 0.34 ± 0.018 | 0.374 ± 0.018 |
| BT549 BREAST | 1.16 ± 0.2 | 1.06 ± 0.055 | 1.16 ± 0.18 | 1.19 ± 0.13 | 1.04 ± 0.12 | 0.95 ± 0.096 | 0.968 ± 0.094 | 0.861 ± 0.052 | 0.569 ± 0.026 | 0.531 ± 0.061 | 0.415 ± 0.032 | 0.499 ± 0.079 | 0.4507 ± 0.0023 | 0.418 ± 0.05 | 0.365 ± 0.017 | 0.356 ± 0.027 |
| CADOES1 SOFT TISSUE | 0.988 ± 0.032 | 1.02 ± 0.097 | 0.977 ± 0.1 | 0.973 ± 0.046 | 0.912 ± 0.085 | 0.955 ± 0.017 | 1.09 ± 0.11 | 0.992 ± 0.11 | 0.842 ± 0.1 | 0.74 ± 0.072 | 0.529 ± 0.052 | 0.472 ± 0.11 | 0.309 ± 0.036 | 0.344 ± 0.098 | 0.259 ± 0.017 | 0.268 ± 0.04 |
| CAL51 BREAST | 0.9767 ± 0.007 | 0.977 ± 0.035 | 0.937 ± 0.029 | 0.849 ± 0.052 | 0.7553 ± 0.0068 | 0.738 ± 0.022 | 0.616 ± 0.021 | 0.602 ± 0.059 | 0.684 ± 0.049 | 0.527 ± 0.046 | 0.406 ± 0.026 | 0.376 ± 0.0096 | 0.332 ± 0.029 | 0.283 ± 0.011 | 0.257 ± 0.039 | 0.26 ± 0.025 |
| CAL120 BREAST | 0.945 ± 0.043 | 0.9817 ± 0.0068 | 0.937 ± 0.03 | 0.888 ± 0.025 | 0.713 ± 0.029 | 0.681 ± 0.019 | 0.552 ± 0.05 | 0.491 ± 0.039 | 0.707 ± 0.073 | 0.602 ± 0.062 | 0.501 ± 0.028 | 0.486 ± 0.026 | 0.463 ± 0.007 | 0.45 ± 0.021 | 0.424 ± 0.021 | 0.412 ± 0.0054 |
| CASKI CERVIX | 0.927 ± 0.055 | 0.951 ± 0.033 | 1.01 ± 0.014 | 1.02 ± 0.073 | 0.961 ± 0.053 | 1.03 ± 0.048 | 0.805 ± 0.02 | 0.548 ± 0.019 | 0.57 ± 0.035 | 0.506 ± 0.025 | 0.473 ± 0.018 | 0.402 ± 0.029 | 0.446 ± 0.021 | 0.389 ± 0.043 | 0.376 ± 0.0098 | 0.379 ± 0.014 |
| CHLA90 AUTONOMIC GANGLIA | 0.994 ± 0.075 | 1.04 ± 0.099 | 1.07 ± 0.07 | 1.01 ± 0.014 | 0.883 ± 0.051 | 0.692 ± 0.039 | 0.568 ± 0.029 | 0.473 ± 0.041 | 0.634 ± 0.051 | 0.512 ± 0.026 | 0.342 ± 0.021 | 0.343 ± 0.011 | 0.372 ± 0.066 | 0.404 ± 0.091 | 0.355 ± 0.067 | 0.344 ± 0.085 |
| CME SYNOVIAL | 1.21 ± 0.046 | 1.09 ± 0.063 | 1.29 ± 0.11 | 1.14 ± 0.14 | 1 ± 0.075 | 0.935 ± 0.097 | 0.761 ± 0.051 | 0.724 ± 0.035 | 1.2 ± 0.12 | 1.2 ± 0.2 | 1.29 ± 0.071 | 1.15 ± 0.16 | 0.885 ± 0.096 | 0.828 ± 0.066 | 0.66 ± 0.085 | 0.77 ± 0.1 |
| COLO320DM LARGE INTESTINE | 1.08 ± 0.027 | 1.11 ± 0.049 | 0.994 ± 0.036 | 0.997 ± 0.21 | 1.1 ± 0.076 | 1.05 ± 0.1 | 1.08 ± 0.078 | 1.1 ± 0.2 | 0.945 ± 0.056 | 0.983 ± 0.072 | 0.835 ± 0.081 | 0.843 ± 0.074 | 0.742 ± 0.017 | 0.779 ± 0.037 | 0.695 ± 0.047 | 0.652 ± 0.025 |
| DU4475 BREAST | 1.12 ± 0.37 | 0.979 ± 0.16 | 1.03 ± 0.27 | 0.998 ± 0.13 | 1.15 ± 0.3 | 1.08 ± 0.21 | 1.11 ± 0.21 | 1 ± 0.22 | 0.429 ± 0.1 | 0.272 ± 0.054 | 0.148 ± 0.0015 | 0.161 ± 0.03 | 0.108 ± 0.031 | 0.125 ± 0.03 | 0.103 ± 0.0061 | 0.0877 ± 0.012 |
| H23 LUNG | 0.965 ± 0.059 | 1.06 ± 0.052 | 1.03 ± 0.055 | 1.04 ± 0.02 | 1.01 ± 0.037 | 1.05 ± 0.028 | 0.979 ± 0.075 | 0.964 ± 0.066 | 0.811 ± 0.023 | 0.724 ± 0.011 | 0.567 ± 0.049 | 0.501 ± 0.039 | 0.488 ± 0.022 | 0.482 ± 0.034 | 0.405 ± 0.048 | 0.433 ± 0.03 |
| HCC38 BREAST | 0.972 ± 0.24 | 0.947 ± 0.062 | 1.02 ± 0.2 | 1.11 ± 0.22 | 0.78 ± 0.14 | 0.801 ± 0.14 | 0.66 ± 0.11 | 0.785 ± 0.046 | 1.17 ± 0.022 | 1.01 ± 0.065 | 0.897 ± 0.11 | 0.925 ± 0.069 | 0.795 ± 0.08 | 0.888 ± 0.033 | 0.733 ± 0.024 | 0.852 ± 0.027 |
| HCC70 BREAST | 1.03 ± 0.11 | 1.12 ± 0.082 | 1.16 ± 0.045 | 1.14 ± 0.07 | 1.1 ± 0.091 | 1.15 ± 0.018 | 1.03 ± 0.098 | 0.946 ± 0.093 | 0.866 ± 0.073 | 0.749 ± 0.059 | 0.606 ± 0.017 | 0.536 ± 0.024 | 0.536 ± 0.052 | 0.543 ± 0.019 | 0.44 ± 0.054 | 0.429 ± 0.01 |
| HCC78 LUNG | 1.04 ± 0.2 | 1.14 ± 0.23 | 1.03 ± 0.13 | 0.986 ± 0.11 | 1.08 ± 0.039 | 1.13 ± 0.25 | 1.11 ± 0.25 | 1.1 ± 0.25 | 0.516 ± 0.13 | 0.674 ± 0.26 | 0.528 ± 0.11 | 0.627 ± 0.11 | 0.621 ± 0.1 | 0.599 ± 0.18 | 0.358 ± 0.052 | 0.327 ± 0.055 |
| HCC202 BREAST | 0.984 ± 0.2 | 1.17 ± 0.39 | 0.964 ± 0.22 | 1.04 ± 0.26 | 1.31 ± 0.41 | 1.16 ± 0.1 | 1.52 ± 0.38 | 1.18 ± 0.21 | 1 ± 0.083 | 0.79 ± 0.055 | 0.548 ± 0.15 | 0.578 ± 0.13 | 0.383 ± 0.093 | 0.471 ± 0.1 | 0.44 ± 0.054 | 0.385 ± 0.14 |
